Assay results taken from ChEMBL document CHEMBL5233288, “Ginkgo Biflavones Cause p53 Wild-Type Dependent Cell Death in a Transcription-Independent Manner of p53” (J Nat Prod, 2023).
The source made the active and inactive calls. The calls are words filed in the database; no cut-off is given here.

Assays:
[1] = Toxicity against BALB/c nude mouse xenografted with human HCT-116 cells assessed as body weight loss at 30 mg/kg, ip administered once every 3 days for 12 days and measured every 2 days; type: organism-based; settings: in vivo, 288 h, time 12 day
HCT-116 = experiment: Antitumor activity against human HCT-116 cells xenografted in BALB/c nude mouse assessed as reduction in tumor volume at 30 mg/kg, ip administered once every 3 days for 12 days and measured every 2 days; type: functional, organism-based; settings: time 12.0 day

With O=c1[nH]cc(F)c(=O)[nH]1 [FLUOROURACIL] the Activity [1] was “Toxic” and the Activity (HCT-116) was “Active”.
